According to ChEMBL document CHEMBL3758074, “Structure-activity relationship study of 4-(thiazol-5-yl)benzoic acid derivatives as potent protein kinase CK2 inhibitors” (Bioorg Med Chem, 2016):
pIC50: −log10 of the molar value. Converted amounts (≈) assume the structure as drawn.

Legend:
[1] = tested on: A549; experiment: Cytotoxicity against human A549 cells after 72 hrs by MTS assay; type: functional; conditions: A549, 72 h
[2] = Thermodynamic solubility of compound in 67 mM phosphate buffer at pH 7.4 after 24 hrs by HPLC analysis; type: physicochemical; conditions: read-out: Therm_solubility
[3] = molecular target: Casein kinase II subunit alpha (Homo sapiens, UniProt P68400); experiment: Inhibition of GST-tagged human CK2alpha (1 to 391 residues) using CK2tide as substrate incubated for 1 hr by off-chip mobility shift assay
[4] = molecular target: Casein kinase II subunit alpha' (Homo sapiens, UniProt P19784); experiment: Inhibition of GST-tagged human CK2alpha' (1 to 350 residues) using CK2tide as substrate incubated for 1 hr by off-chip mobility shift assay

Compound	CC50 [1] [µM]	solubility thermodynamic at 24 h [2] [µg/mL]	pIC50 [3]	pIC50 [4]
COc1ccc(C(=O)Nc2ncc(-c3ccc(C(=O)O)cc3OCc3ccccc3OC)s2)cc1	2	1.4 (≈ 2.85 µM)	–	–
O=C(O)c1ccc2c(c1)nc(Nc1cccc(Cl)c1)c1ccncc12 [SILMITASERTIB]	9.9	57 (≈ 163 µM)	–	–
COc1ccc(C(=O)Nc2ncc(-c3ccc(C(=O)O)cc3)s2)cc1	8.5	2.7 (≈ 7.62 µM)	7.70	7.96
COc1ccc(C(=O)Nc2ncc(-c3ccc(C(=O)O)c4ccccc34)s2)cc1	> 30	–	–	–
COc1ccc(C(=O)Nc2ncc(-c3ccc(C(=O)O)cc3OCc3ccccc3Cl)s2)cc1	1.6	–	–	–
COc1ccc(C(=O)Nc2ncc(-c3ccc(C(=O)O)cc3COc3ccccc3)s2)cc1	21.9	–	–	–
COc1ccc(C(=O)Nc2ncc(-c3ccc(C(=O)O)cc3OCc3ccccc3Br)s2)cc1	1.5	–	–	–
COc1ccc(C(=O)Nc2ncc(-c3ccc(C(=O)O)cc3Oc3ccccc3)s2)cc1	4.7	–	–	–
COc1ccc(C(=O)Nc2ncc(-c3ccc(C(=O)O)cn3)s2)cc1	> 30	90 (≈ 253 µM)	–	–
COc1ccc(C(=O)Nc2ncc(-c3ccc(C(=O)O)nc3)s2)cc1	> 30	14 (≈ 39.4 µM)	–	–
COc1ccc(C(=O)Nc2ncc(-c3ccc(C(=O)O)cc3OCc3ccccc3C#N)s2)cc1	> 30	–	–	–
COc1ccc(C(=O)Nc2ncc(-c3ccc(C(=O)O)cc3OCc3ccccc3)s2)cc1	1.5	–	–	–
COc1ccc(C(=O)Nc2ncc(-c3ccc(C(=O)O)cc3OCCc3ccccc3)s2)cc1	3.6	–	–	–
COc1ccc(C(=O)Nc2ncc(-c3ccc(C(=O)O)nn3)s2)cc1	> 30	1020 (≈ 2880 µM)	–	–
COc1ccc(C(=O)Nc2ncc(-c3ccc(C(=O)O)cc3OCc3ccc(Cl)cc3)s2)cc1	2.5	–	–	–
COc1ccc(C(=O)Nc2ncc(-c3ccc(C(=O)O)cc3OCc3ccccn3)s2)cc1	> 30	–	–	–
COc1ccc(C(=O)Nc2ncc(-c3ccc(C(=O)O)cc3OCc3cccc(Cl)c3)s2)cc1	18.7	–	–	–
COc1ccc(C(=O)Nc2ncc(-c3ccc(C(=O)O)cc3OCc3ccccc3F)s2)cc1	3.3	–	–	–
